The record followed here is the METLIN SMRT retention time set (Domingo-Almenara et al. 2019).

The series can be described thus: gradient 5% acetonitrile 3 min, to 50% in 2 min, to 85% in 15 min, held 3 min, 100 µL/min. The conditions noted are these: column: Zorbax Extend-C18 2.1 x 50 mm; eluents: water / acetonitrile, 0.1% formic acid. In a few lines:
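The system's dead and dwell volumes were 40 μL and 900 μL, with a Zorbax Extend-C18 column (2.1 × 50 mm, 1.8 μm) run at 100 μL/min in water and acetonitrile containing 0.1% formic acid each. Pure standards were analyzed in mixtures of ~100 molecules by HPLC–quadrupole time-of-flight mass spectrometry in positive and negative ionization mode. Retention time was assigned from computationally picked, manually inspected adduct peaks.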
Take `O=C(c1cccnn1)N1CC(F)(F)C[C@H]1c1nnc(-c2ccccc2)o1`: the RP-LC retention time stood at 746 s.
For `O=C(NCc1cccnc1)c1cc(N2CCCC2)n2nccc2n1`, the RP-LC retention time came to 534 s.
Take `CCC(C)NC(=O)C1CCCN(c2nccn3nc(-c4ccc(C)cc4C)cc23)C1` (centres undefined): the RP-LC retention time stood at 908 s.
As for `CCc1ccccc1NC(=O)N1CCN(C2=CC3=NC(CC)CN3C=N2)CC1` (centres undefined), the RP-LC retention time stood at 642 s.
